From US20210161855A1, “5-LIPOXYGENASE ANTAGONISTS” (INSTITUTO DE MEDICINA MOLECULAR JOÃO LOBO ANTUNES, priority 2017, published 2021)

How the values were obtained:
5-lipoxygenase (5-LO) = biological target: T1, 5-lipoxygenase (5-LO) (Homo sapiens, UniProt P09917); test: 5-LO inhibition assay, Method A (Cerep), cell-free functional; assay type: biochemical; settings: 150 μM; read-out: 5-LO inhibition at the assayed concentration
T1 sequence (P09917 1-674): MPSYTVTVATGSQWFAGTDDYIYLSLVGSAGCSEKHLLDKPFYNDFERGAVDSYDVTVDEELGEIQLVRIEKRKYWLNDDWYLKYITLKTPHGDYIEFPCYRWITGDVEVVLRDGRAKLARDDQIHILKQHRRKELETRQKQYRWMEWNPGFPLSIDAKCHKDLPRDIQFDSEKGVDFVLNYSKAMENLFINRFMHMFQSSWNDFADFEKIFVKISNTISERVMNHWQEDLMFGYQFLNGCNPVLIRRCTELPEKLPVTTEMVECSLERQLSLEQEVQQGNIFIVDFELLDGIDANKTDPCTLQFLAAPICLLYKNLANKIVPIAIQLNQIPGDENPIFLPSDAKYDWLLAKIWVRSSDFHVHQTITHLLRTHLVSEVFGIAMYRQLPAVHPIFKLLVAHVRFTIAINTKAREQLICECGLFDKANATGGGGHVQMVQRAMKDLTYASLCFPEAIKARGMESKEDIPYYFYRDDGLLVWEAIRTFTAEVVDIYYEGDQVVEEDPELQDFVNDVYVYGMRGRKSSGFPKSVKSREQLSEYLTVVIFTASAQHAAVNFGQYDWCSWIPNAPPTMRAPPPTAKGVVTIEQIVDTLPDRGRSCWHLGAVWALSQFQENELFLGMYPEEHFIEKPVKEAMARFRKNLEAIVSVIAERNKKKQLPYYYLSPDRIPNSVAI
Method: Method A: 5-Lipoxygenase (5-LO), 12-lipoxygenase (12-LO) and 15-lipoxygenase-2 (15-LO-2) inhibition assays were performed at Cerep, SA (Celle l'Evescault, France) on a fee-for-service basis (Ref 0772^36, 0883^37 and 0893^38, respectively), as described in Table 1.

EP3 = biological target: T2, EP3 (Homo sapiens, UniProt P43115); test: Prostanoid EP3 receptor antagonism, functional assay; assay type: cell-based; settings: 150 μM
T2 sequence (P43115 1-390): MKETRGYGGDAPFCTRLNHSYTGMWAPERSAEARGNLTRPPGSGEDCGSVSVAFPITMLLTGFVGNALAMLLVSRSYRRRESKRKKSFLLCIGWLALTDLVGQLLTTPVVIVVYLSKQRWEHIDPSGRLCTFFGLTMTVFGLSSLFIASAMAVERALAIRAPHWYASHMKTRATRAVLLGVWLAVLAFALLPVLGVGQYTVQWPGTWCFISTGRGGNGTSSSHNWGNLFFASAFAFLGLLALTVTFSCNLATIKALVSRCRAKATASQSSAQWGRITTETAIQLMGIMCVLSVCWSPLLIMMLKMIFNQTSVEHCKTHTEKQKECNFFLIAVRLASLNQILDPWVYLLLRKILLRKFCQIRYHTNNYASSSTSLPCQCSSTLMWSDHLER

EP4 = EP4 (Homo sapiens, UniProt P35408); test: Prostanoid EP4 receptor antagonism, functional assay; assay type: cell-based; settings: 150 μM
TRPV1 = TRPV1 (Homo sapiens, UniProt Q8NER1); test: TRPV1 channel antagonism, functional assay; assay type: cell-based; settings: 150 μM
TRPM8 = TRPM8 (Homo sapiens, UniProt Q7Z2W7); test: TRPM8 channel antagonism, functional assay; assay type: cell-based; settings: 150 μM
5-LO = biological target: T3, 5-LO (Homo sapiens, UniProt P09917); test: 5-LO activity in neutrophil homogenates; assay type: biochemical; parameters: endogenous in cells; host or cells: neutrophils isolated from peripheral blood of healthy adult volunteers; intact or sonicated homogenates; settings: neutrophil homogenates, with or without 1 mM DTT
T3 sequence (P09917 1-674): T1 sequence (P09917 1-674)
Method: Peripheral blood (University Hospital Jena, Germany) was withdrawn from healthy adult volunteers with consent that had not taken any anti-inflammatory drugs during the last 10 days, by venipuncture in heparinized tubes (16 IE heparin/mL blood). The blood was centrifuged at 4000 g for 20 min at 20° C. for preparation of leukocyte concentrates. Leukocyte concentrates were then subjected to dextran sedimentation and centrifugation on lymphocyte separation medium (LSM 1077, PAA, Colbe, Germany). Contaminating erythrocytes of pelleted neutrophils were removed by hypotonic Iysis. Neutrophils were then washed twice in ice-cold PBS and finally resuspended in PBS pH 7.4 containing 1 mg/mL glucose or in PBS pH 7.4 containing 1 mg/mL glucose plus 1 mM CaCl2 (PGC buffer) (purity>96-97%).
For analysis of 5-LO product formation in corresponding homogenates, neutrophils were resuspended in PBS containing 1 mM EDTA for 5 min at 4° C. and sonicated (4×10 s, 4° C.). Homogenates, corresponding to 5×10^6 cells/mL, were incubated with the test compounds or vehicle (0.1% DMSO) with or without 1 mM DTT for 15 min at 4° C., pre-warmed for 30 s at 37° C., and the reaction was started by the addition of 2 mM CaCl2 plus the indicated concentrations of AA (routinely 20 μM). The reaction was stopped after 10 min and the samples were analyzed as described for intact cells above.
Data are expressed as mean±S.E.M. IC50 values were calculated from averaged measurements at 6 different concentrations of the compound by nonlinear regression using GraphPad Prism software (San Diego, Calif.) one site binding competition. Statistical evaluation of the data was performed by one-way ANOVA followed by a Tukey-Kramer post-hoc test for multiple comparisons respectively. A p value<0.05 (*) was considered significant.

Sequence of EP4 (P35408 whole entry): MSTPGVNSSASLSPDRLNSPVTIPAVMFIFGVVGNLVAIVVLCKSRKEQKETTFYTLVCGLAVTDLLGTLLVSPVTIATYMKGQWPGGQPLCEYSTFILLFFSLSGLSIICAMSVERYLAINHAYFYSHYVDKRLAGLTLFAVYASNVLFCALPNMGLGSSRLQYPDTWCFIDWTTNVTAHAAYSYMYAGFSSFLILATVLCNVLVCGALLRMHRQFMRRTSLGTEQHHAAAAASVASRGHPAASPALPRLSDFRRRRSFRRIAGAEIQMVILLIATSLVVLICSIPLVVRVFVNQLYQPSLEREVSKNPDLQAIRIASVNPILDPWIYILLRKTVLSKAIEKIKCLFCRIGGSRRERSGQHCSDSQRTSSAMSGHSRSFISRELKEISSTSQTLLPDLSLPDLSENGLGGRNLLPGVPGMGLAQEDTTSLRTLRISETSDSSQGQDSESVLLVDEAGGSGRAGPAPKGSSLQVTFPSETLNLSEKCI
Sequence of TRPV1 (Q8NER1 whole entry, species assumed): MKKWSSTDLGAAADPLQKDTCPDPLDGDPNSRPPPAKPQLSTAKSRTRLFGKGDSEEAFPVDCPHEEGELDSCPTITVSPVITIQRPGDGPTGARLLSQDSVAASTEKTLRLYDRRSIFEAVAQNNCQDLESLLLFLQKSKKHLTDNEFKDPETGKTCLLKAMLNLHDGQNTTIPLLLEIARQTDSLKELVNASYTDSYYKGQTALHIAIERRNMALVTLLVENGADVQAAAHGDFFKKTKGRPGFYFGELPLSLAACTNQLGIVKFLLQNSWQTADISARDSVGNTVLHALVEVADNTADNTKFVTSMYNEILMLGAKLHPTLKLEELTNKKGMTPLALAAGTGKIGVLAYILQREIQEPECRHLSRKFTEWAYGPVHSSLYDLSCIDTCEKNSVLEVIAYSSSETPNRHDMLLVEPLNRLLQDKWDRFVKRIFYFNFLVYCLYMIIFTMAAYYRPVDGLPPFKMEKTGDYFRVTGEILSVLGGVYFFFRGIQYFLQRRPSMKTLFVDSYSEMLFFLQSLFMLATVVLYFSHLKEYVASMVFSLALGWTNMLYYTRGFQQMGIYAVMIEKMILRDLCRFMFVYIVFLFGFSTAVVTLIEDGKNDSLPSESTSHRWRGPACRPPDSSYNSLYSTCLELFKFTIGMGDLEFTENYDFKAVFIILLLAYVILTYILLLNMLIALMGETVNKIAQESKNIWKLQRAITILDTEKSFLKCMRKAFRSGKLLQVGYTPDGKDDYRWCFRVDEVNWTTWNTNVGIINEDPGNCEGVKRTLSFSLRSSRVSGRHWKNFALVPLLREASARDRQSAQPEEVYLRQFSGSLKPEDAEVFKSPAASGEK
Sequence of TRPM8 (Q7Z2W7 whole entry, species assumed): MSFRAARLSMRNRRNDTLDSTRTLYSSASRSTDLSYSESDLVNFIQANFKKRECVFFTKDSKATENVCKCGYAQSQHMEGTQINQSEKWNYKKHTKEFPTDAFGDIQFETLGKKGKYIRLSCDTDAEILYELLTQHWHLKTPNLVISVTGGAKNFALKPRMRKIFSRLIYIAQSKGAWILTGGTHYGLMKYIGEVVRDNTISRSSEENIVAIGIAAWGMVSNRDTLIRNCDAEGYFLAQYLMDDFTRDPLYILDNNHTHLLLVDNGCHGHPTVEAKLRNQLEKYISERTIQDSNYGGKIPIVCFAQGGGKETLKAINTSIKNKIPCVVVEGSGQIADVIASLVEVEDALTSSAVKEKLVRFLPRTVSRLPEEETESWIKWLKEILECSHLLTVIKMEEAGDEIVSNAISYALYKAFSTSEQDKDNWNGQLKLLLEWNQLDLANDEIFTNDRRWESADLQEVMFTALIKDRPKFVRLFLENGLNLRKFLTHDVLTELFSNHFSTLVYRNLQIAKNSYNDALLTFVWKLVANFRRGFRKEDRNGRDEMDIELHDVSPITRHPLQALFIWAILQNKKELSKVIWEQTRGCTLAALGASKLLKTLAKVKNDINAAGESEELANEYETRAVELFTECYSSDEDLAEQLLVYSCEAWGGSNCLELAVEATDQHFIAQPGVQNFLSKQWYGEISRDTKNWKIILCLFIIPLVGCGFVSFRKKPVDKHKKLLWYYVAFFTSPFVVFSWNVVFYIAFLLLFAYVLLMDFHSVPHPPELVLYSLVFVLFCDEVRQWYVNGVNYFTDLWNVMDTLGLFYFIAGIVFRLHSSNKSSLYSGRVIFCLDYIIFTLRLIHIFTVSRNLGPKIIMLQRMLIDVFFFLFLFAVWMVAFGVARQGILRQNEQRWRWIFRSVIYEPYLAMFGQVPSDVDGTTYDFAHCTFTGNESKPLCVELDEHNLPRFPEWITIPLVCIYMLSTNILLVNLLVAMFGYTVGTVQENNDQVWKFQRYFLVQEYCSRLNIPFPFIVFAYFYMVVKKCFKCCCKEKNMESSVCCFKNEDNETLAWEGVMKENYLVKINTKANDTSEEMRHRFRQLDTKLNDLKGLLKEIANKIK

Row | Dependence of inhibition on DTT (5-LO) | SMILES | inhibition at 150 µM (5-lipoxygenase (5-LO)) [%] | EP3 antagonist effect (EP3) [%] | EP4 antagonist effect (EP4) [%] | TRPV1 antagonist effect (TRPV1) [%] | TRPM8 antagonist effect (TRPM8) [%]
1 | – | CC(C)=CCC1=C(O)C(=O)c2ccccc2C1=O [Compound 2, 2-hydroxy-3-(3′-methyl-2′-butenyl)-1,4-naphthoquinone] | 87 | 50 | 56 | 65 | 91
2 | independent of DTT | CC(c1cc2ccccc2s1)N(O)C(N)=O (stereo not drawn) [zileuton, reference compound] | – | – | – | – | –
